Where two headings read alike, the source gives them in different places.

The target in this experiment is ALPK1 (Homo sapiens (Human), UniProt Q96QP1). In words: ALPK1 in vitro kinase assay (HTRF of TIFA phosphorylation). The format is biochemical. From the text:
In embodiments, a compound of Formula I, or a subembodiment described herein, is an inhibitor of ALPK1 as measured, for example, in an in vitro kinase assay, or an assay designed to measure the activation of downstream targets of ALPK1 pathway activation, for example NFkB transcriptional activation and the secretion of proinflammatory cytokines and chemokines, such as IL-8, which is also referred to as CXCL-8. In general, the computer program XL fit was used for data analysis, including non-linear regression analysis. The half maximal inhibitory concentration (IC50) was used as the measure of a compound's effectiveness in the assays. IC50 values were determined using the following logistic equation Y=min+(max−min)/(1+(X/IC50^−hillslpoe), where Y is the value at the compound concentration, X. The concentration response curve fitting was conducted using GraphPad Prism version 6.00 software.
ALPK1 kinase activity was measured in an in vitro assay using ADP-Heptose as the ALPK1 ligand and activator of its kinase activity and TIFA protein as the ALPK1 phosphorylation substrate. Since phosphorylated TIFA proteins oligomerize, Homogeneous Time-Resolved Fluorescence (HTRF) was used to measure protein:protein interaction between HA-tagged TIFA proteins as an indicator of TIFA phosphorylation.
In brief, dose-response studies were performed with HEK293 cells cultured in Dulbecco's Modified Eagle Medium (DMEM) supplemented 10% fetal bovine serum (FBS, Hyclone™) containing antibiotics (pen/strep, G418) in 384-well assay plates. Each well contained 0.1 mg TIFA, ALPK1 (2 nM final concentration in reaction mixture) and kinase buffer (100 mM of HEPES pH 7.4, 4 mM DTT, 40 mM MgCl2, 20 mM of β-Glycerol phosphate disodium salt, 0.4 mM of Na3VO4, 0.16 mg/mL). Titrations of the test compounds were prepared in dimethylsulphoxide (DMSO). The reaction was initiated by addition of ATP and ADP-Heptose.
For HTRF, samples were incubated with a Tb cryptate-labeled anti-HA antibody for capturing HA-tagged proteins according to the manufacturer's instructions (PerkinElmer™, CisBio™) and the fluorescence signal was quantified (Tecan Infinite F NANO+). HTRF signals were calculated as the HTRF ratio (ratio of fluorescence measured at 665 nm and 620 nm)×104 (thereby using the signal at 620 nm as an internal standard).
IC50 values were determined using 3- or 4-parameter logistic equation using GraphPad Prism version 6.00. The reference compound, A027, was used as a positive control for each plate.

The mark [1] stands for this setting: ALPK1 2 nM, TIFA substrate, ADP-Heptose activator, HTRF readout.

Sequence of ALPK1 (Q96QP1 whole entry): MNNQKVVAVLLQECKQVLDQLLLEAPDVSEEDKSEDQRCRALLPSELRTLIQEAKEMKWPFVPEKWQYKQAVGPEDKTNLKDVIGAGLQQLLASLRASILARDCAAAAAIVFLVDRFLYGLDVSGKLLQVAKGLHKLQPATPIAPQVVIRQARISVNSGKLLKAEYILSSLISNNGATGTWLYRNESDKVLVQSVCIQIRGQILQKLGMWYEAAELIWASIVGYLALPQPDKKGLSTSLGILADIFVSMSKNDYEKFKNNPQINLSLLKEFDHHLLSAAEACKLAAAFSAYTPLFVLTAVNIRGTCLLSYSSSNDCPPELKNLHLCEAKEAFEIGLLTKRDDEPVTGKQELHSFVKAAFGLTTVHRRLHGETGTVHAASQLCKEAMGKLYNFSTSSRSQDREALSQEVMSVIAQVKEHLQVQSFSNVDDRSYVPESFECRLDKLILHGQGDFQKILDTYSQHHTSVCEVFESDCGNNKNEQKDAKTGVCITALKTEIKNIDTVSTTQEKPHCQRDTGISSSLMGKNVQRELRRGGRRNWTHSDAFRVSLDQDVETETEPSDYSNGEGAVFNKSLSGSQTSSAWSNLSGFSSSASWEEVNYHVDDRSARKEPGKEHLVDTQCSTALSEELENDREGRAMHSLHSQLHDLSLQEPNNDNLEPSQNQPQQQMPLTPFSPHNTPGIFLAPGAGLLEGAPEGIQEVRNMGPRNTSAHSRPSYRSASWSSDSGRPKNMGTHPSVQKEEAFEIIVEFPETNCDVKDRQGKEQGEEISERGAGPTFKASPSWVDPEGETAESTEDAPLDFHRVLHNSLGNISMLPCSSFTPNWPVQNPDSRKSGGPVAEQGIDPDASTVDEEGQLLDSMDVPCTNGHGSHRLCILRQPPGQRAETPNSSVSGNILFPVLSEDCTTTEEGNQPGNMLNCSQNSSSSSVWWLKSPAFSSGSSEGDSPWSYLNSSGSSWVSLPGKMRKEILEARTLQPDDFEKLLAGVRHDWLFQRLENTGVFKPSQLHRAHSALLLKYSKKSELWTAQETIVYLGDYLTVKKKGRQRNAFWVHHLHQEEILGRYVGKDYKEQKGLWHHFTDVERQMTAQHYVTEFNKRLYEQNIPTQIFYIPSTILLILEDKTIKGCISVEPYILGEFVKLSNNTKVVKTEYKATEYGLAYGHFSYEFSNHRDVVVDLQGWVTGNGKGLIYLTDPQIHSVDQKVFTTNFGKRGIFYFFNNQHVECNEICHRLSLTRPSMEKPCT

For `C#CC(C)(c1ccc(F)cc1)c1csc(NC(=O)c2c(F)cc(-c3cnc(CN)cn3)cc2F)n1` (centres unmarked) [Example B104, 4-(5-(aminomethyl)pyrazin-2-yl)-2,6-difluoro-N-(4-(2-(4-fluorophenyl)but-3-yn-2-yl)thiazol-2-yl)benzamide], under setting [1], 1470 nM corresponded to half-maximal inhibition (IC50).

As for `COCC(C)(c1ccc(Br)cc1)c1csc(NC(=O)c2c(F)cc(N3CCNCC3)cc2F)n1` (centres unmarked) [Example C014, N-(4-(2-(4-bromophenyl)-1-methoxypropan-2-yl)thiazol-2-yl)-2,6-difluoro-4-(piperazin-1-yl)benzamide], the IC50 under setting [1] worked out at 13 nM.

In the case of `C#CC(C)(c1ccc(Cl)cc1)c1csc(NC(=O)c2c(F)ccc(OC)c2F)n1` (centres unmarked) [Example B064, N-(4-(2-(4-chlorophenyl)but-3-yn-2-yl)thiazol-2-yl)-2,6-difluoro-3-methoxybenzamide], 54 nM corresponded to half-maximal inhibition under setting [1] (IC50).

In turn, `CC(C)(c1ccc(Br)cn1)c1csc(NC(=O)NCc2ccc(N3CCNCC3)c(F)c2)n1` [Example A057, 1-(4-(2-(5-bromopyridin-2-yl)propan-2-yl)thiazol-2-yl)-3-(3-fluoro-4-(piperazin-1-yl)benzyl)urea] gave a 50% inhibitory concentration (IC50) of 246 nM.

In the case of `COc1ccc(C(C)(C)c2csc(NC(=O)c3cnc(N4CCNCC4)nc3)n2)cc1` [Example B015, N-(4-(2-(4-methoxyphenyl)propan-2-yl)thiazol-2-yl)-2-(piperazin-1-yl)pyrimidine-5-carboxamide], 161 nM corresponded to half-maximal inhibition under setting [1] (IC50).

On to `O=C(NCc1cnc(N2CCNCC2)nc1)Nc1nc(C2(c3ccc(Br)cc3)CCCC2)cs1` [Example A180, 1-(4-(1-(4-bromophenyl)cyclopent-yl)thiazol-2-yl)-3-((2-(piperazin-1-yl)pyrimidin-5-yl)methyl)urea], for which the half-inhibitory concentration (IC50) is 45 nM.

In turn, `COc1ccc(C(C)(C)c2csc(NC(=O)c3ccc(N4CCC(N)C4)cc3)n2)cc1` (centres unmarked) [Example B041, 4-(3-aminopyrrolidin-1-yl)-N-(4-(2-(4-methoxyphenyl)propan-2-yl)thiazol-2-yl)benzamide] showed a half-inhibitory concentration (IC50) under setting [1] of 80 nM.

As for `CC(C)(c1ccc(F)cc1)c1csc(NC(=O)c2c(F)cc(N3CCNCC3)cc2F)n1` [Example C005, 2,6-difluoro-N-(4-(2-(4-fluorophenyl)propan-2-yl)thiazol-2-yl)-4-(piperazin-1-yl)benzamide], under setting [1], 6 nM corresponded to half-maximal inhibition (IC50).

Regarding `COc1ccc(C(C)(C)c2csc(NC(=O)c3ccc(N4CCNCC4)cc3Cl)n2)cc1` [Example B008, 2-chloro-N-(4-(2-(4-methoxyphenyl)propan-2-yl)thiazol-2-yl)-4-(piperazin-1-yl)benzamide], the IC50 under setting [1] is 37 nM.

As to `COc1ccc(C(C)(C)c2csc(NC(=O)c3cccc(N4CCN(CCO)CC4)c3)n2)cc1` [Example B007, 3-(4-(2-hydroxyethyl)piperazin-1-yl)-N-(4-(2-(4-methoxyphenyl)propan-2-yl)thiazol-2-yl)benzamide], under setting [1], the IC50 stood at 230 nM.

As for `C#CC(C)(c1ccc(F)cc1)c1csc(NC(=O)c2c(F)cc(-c3c[nH]n(C)c3=O)cc2F)n1` (centres unmarked) [Example B103, 2,6-difluoro-N-(4-(2-(4-fluorophenyl)but-3-yn-2-yl)thiazol-2-yl)-4-(2-methyl-3-oxo-2,3-dihydro-1H-pyrazol-4-yl)benzamide], the IC50 under setting [1] was found to be 5140 nM.

Molecule `C#CC(C)(c1ccc(OC)cc1)c1csc(NC(C)=O)n1` (centres unmarked) [Example D002, N-(4-(2-(4-methoxyphenyl)but-3-yn-2-yl)thiazol-2-yl)acetamide] showed an IC50 under setting [1] of 196 nM.

With `C#CC(C)(c1ccc(OC(F)F)cc1)c1csc(NC(=O)c2c(F)cc(N3CCNCC3)cc2F)n1` (centres unmarked) [Example C033, N-(4-(2-(4-(difluoromethoxy)phenyl)but-3-yn-2-yl)thiazol-2-yl)-2,6-difluoro-4-(piperazin-1-yl)benzamide], half-maximal inhibition under setting [1] (IC50) was put at 73 nM.

As to `COc1ccc(C(C)(C)c2csc(NC(=O)c3ccc(OCC(C)O)cc3)n2)cc1` (centres unmarked) [Example B063, 4-(2-hydroxypropoxy)-N-(4-(2-(4-methoxyphenyl)propan-2-yl)thiazol-2-yl)benzamide], under setting [1], the IC50 was 245 nM.

As to `C#C[C@@](C)(c1ccc(Cl)cc1)c1csc(NC(=O)c2c(F)cc(N3CCC(N)C3)cc2F)n1` (stereo in doubt) [Example B087, 4-(3-aminopyrrolidin-1-yl)-N-(4-(2-(4-chlorophenyl)but-3-yn-2-yl)thiazol-2-yl)-2,6-difluorobenzamide], under setting [1], it took 38 nM to reach half-maximal inhibition (IC50).

For the molecule `COc1ccc(C(C)(C)c2csc(NC(=O)NCCCC(=O)NC3CCNCC3)n2)cc1` [Example A071, 4-(3-(4-(2-(4-methoxyphenyl)propan-2-yl)thiazol-2-yl)ureido)-N-(piperidin-4-yl)butanamide], inhibition was half-maximal at 64 nM (IC50).

In turn, `COc1ccc(C(C)(C)c2csc(NC(=O)c3ccc(OCCCN4CCNCC4)cc3)n2)cc1` [Example B022, N-(4-(2-(4-methoxyphenyl)propan-2-yl)thiazol-2-yl)-4-(3-(piperazin-1-yl)propoxy)benzamide] registered an IC50 under setting [1] of 294 nM.

For `C#CC(C)(c1ccc(Cl)cc1)c1csc(NC(=O)c2ccc(N3CCNCC3)nc2)n1` (centres unmarked) [Example B061, N-(4-(2-(4-chlorophenyl)but-3-yn-2-yl)thiazol-2-yl)-6-(piperazin-1-yl)nicotinamide], under setting [1], the IC50 was determined as 167 nM.

Regarding `C#CC(C)(c1ccc(Cl)cc1)c1coc(NC(=O)c2c(F)cc(N3CCNCC3)cc2F)n1` (centres unmarked) [Example C051, N-(4-(2-(4-chlorophenyl)but-3-yn-2-yl)oxazol-2-yl)-2,6-difluoro-4-(piperazin-1-yl)benzamide], the IC50 under setting [1] came out at 26 nM.

The molecule `CC(C)(c1ccc(Br)cc1)c1csc(NC(=O)NCc2cnc(NCCN3CCNCC3)nc2)n1` [Example A206, 1-(4-(2-(4-bromophenyl)propan-2-yl)thiazol-2-yl)-3-((2-((2-(piperazin-1-yl)ethyl)amino)pyrimidin-5-yl)methyl)urea] showed a 50% inhibitory concentration (IC50) of 68 nM.

Consider `C#C[C@@](C)(c1ccc(OC)cc1)c1csc(NC(=O)c2c(F)cc(N3CCNCC3)cc2F)n1` (stereo in doubt) [Example C036, 2,6-difluoro-N-[4-[1-(4-methoxyphenyl)-1-methyl-prop-2-ynyl]thiazol-2-yl]-4-piperazin-1-yl-benzamide], for which it took 67 nM to reach half-maximal inhibition under setting [1] (IC50).

Molecule `COc1ccc(C(C)(C)c2csc(NC(=O)c3cnc(N4CCNCC4)cn3)n2)cc1` [Example B025, N-(4-(2-(4-methoxyphenyl)propan-2-yl)thiazol-2-yl)-5-(piperazin-1-yl)pyrazine-2-carboxamide] gave a concentration for half-maximal inhibition (IC50) under setting [1] of 298 nM.

The molecule `Cc1nc(CNC(=O)Nc2nc(C(C)(C)c3ccc(Br)cc3)cs2)cc(N2CCNCC2)n1` [Example A095, 1-(4-(2-(4-bromophenyl)propan-2-yl)thiazol-2-yl)-3-((2-methyl-6-(piperazin-1-yl)pyrimidin-4-yl)methyl)urea] yielded an IC50 of 32 nM.

The molecule `COc1ccc(C(C)(C)c2csc(NC(=O)c3ccc(NCCO)cc3)n2)cc1` [Example B060, 4-((2-hydroxyethyl)amino)-N-(4-(2-(4-methoxyphenyl)propan-2-yl)thiazol-2-yl)benzamide] returned an IC50 under setting [1] of 280 nM.

In turn, `COc1ccc(C(C)(C)c2csc(NC(=O)NCc3ccc(N4CCC(N)C4)cc3)n2)cc1` (centres unmarked) [Example A184, 1-(4-(3-aminopyrrolidin-1-yl)benzyl)-3-(4-(2-(4-methoxyphenyl)propan-2-yl)thiazol-2-yl)urea] registered an IC50 of 242 nM.

Molecule `C#CC(C)(c1csc(NC(C)=O)n1)c1ccc(Br)cc1F` (centres unmarked) [Example D003, N-(4-(2-(4-bromo-2-fluorophenyl)but-3-yn-2-yl)thiazol-2-yl)acetamide] gave a half-inhibitory concentration (IC50) under setting [1] of 183 nM.

Molecule `[2H]C([2H])(O)CNC(=O)Nc1nc([C@](C)(C#C)c2ccc(Cl)cc2)cs1` (single isomer, unassigned) [Example A320, 1-[4-[1-(4-chlorophenyl)-1-methyl-prop-2-ynyl]thiazol-2-yl]-3-(2,2-dideuterio-2-hydroxy-ethyl)urea] came in with an IC50 of 44 nM.

For `CC(C)(c1ccc(Br)cc1)c1csc(NC(=O)NCc2cnc(N3CCNC(=O)C3)c(F)c2)n1` [Example A112, 1-(4-(2-(4-bromophenyl)propan-2-yl)thiazol-2-yl)-3-((5-fluoro-6-(3-oxopiperazin-1-yl)pyridin-3-yl)methyl)urea], inhibition was half-maximal at 334 nM (IC50).

`O=C(Nc1nc(C2(c3ccc(Br)cc3)CCCC2)cs1)c1c(F)cc(N2CCNCC2)cc1F` [Example C006, N-(4-(1-(4-bromophenyl)cyclopentyl)thiazol-2-yl)-2,6-difluoro-4-(piperazin-1-yl)benzamide] displayed an IC50 under setting [1] of 43 nM.

Values taken from patent US20240109853A1 (Shanghai Yao Yuan Biotechnology Co., Ltd., priority 2020, published 2024).
